Measured values taken from US11472808B2, “Substituted pyrrolo[1,2-c]pyrimidines as hepatitis B antiviral agents” (Enanta Pharmaceuticals, Inc., priority 2019, dated 2022).

Each compound was assayed on HBV (assay: HepAD38 anti-HBV assay: reduction of viral product accumulation (virion DNA qPCR, HBsAg/HBeAg ELISA)). Conditions: Hepatitis B virus, 120 h; HepAD38 cells; concentration reducing viral product accumulation by 50% relative to no drug controls; harvest five days after compound addition; read-out: HepAD38 EC50.
Format: cell-based
Summary of the method: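 Tetracycline-free HepAD38 cells treated 5 days with compound (1:200 DMSO dilution), or 8 days with media and compound refreshed on d2 and d5. Virion DNA quantified by qPCR; HBsAg or HBeAg by ELISA. EC50 is the concentration reducing viral product accumulation 50% versus no-drug controls.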
`CS(=O)(=O)CC(NS(=O)(=O)N[C@H]1CC2=C(c3ccn(C(F)F)n3)[C@H](c3ccc(F)cc3Cl)N=C(c3nccs3)N2C1)c1ccccn1` (stereo partly drawn) [Example 345] was tested, and the EC50 was < 0.1 µM. In the case of `O=C(NCC(O)c1ccccn1)N[C@H]1CC2=C(c3ccn(C(F)F)n3)[C@H](c3ccc(F)cc3Cl)N=C(c3nccs3)N2C1` (stereo partly drawn) [Example 218], the EC50 is reported as > 0.4 µM. With `COC(=O)C1CCN(C(=O)N[C@H]2CC3=C(c4ccn(C(F)F)n4)[C@H](c4ccc(F)cc4Cl)N=C(c4nccs4)N3C2)CC1` [Example 211] the EC50 was 0.1 to 0.4 µM. With `CC(C)(C)OC(=O)N1CCN(C(=O)N[C@H]2CC3=C(c4ccn(C(F)F)n4)[C@H](c4ccc(F)cc4Cl)N=C(c4nccs4)N3C2)CC1` [Example 220] the EC50 was > 0.4 µM. In the case of `O=C(N[C@H]1CC2=C(c3ccn(C(F)F)n3)[C@H](c3ccc(F)cc3Cl)N=C(c3nccs3)N2C1)O[C@H]1CC[C@H](O)CC1` [Example 254], the EC50 is reported as < 0.1 µM. `O=S(=O)(N[C@H]1CC2=C(c3ccn(C(F)F)n3)[C@H](c3ccc(F)cc3Cl)N=C(c3nccs3)N2C1)c1c(Cl)cccc1Cl` [Example 402] showed an EC50 of 0.1 to 0.4 µM. Work on `O=C(N[C@H]1CC2=C(c3ccn(C(F)F)n3)[C@H](c3ccc(F)cc3Cl)N=C(c3nccs3)N2C1)N1CCCCC1` [Example 206] yielded an EC50 of 0.1 to 0.4 µM. With `O=S(=O)(N[C@H]1CC2=C(c3ccn(C(F)F)n3)[C@H](c3ccc(F)cc3Cl)N=C(c3nccs3)N2C1)N1CC[C@H](F)C1` [Example 272] the EC50 was < 0.1 µM. In the case of `COC(=O)c1cc(S(=O)(=O)N[C@H]2CC3=C(c4ccn(C(F)F)n4)[C@H](c4ccc(F)cc4Cl)N=C(c4nccs4)N3C2)c(C)cc1F` [Example 26], the EC50 is reported as > 0.4 µM. In the case of `O=S(=O)(CCCC(O)c1ccccn1)N[C@H]1CC2=C(c3ccn(C(F)F)n3)[C@H](c3ccc(F)cc3Cl)N=C(c3nccs3)N2C1` (stereo partly drawn) [Example 297], the EC50 is reported as 0.1 to 0.4 µM. With `CC(C)OC(=O)N[C@H]1CC2=C(c3ccn(C(F)F)n3)[C@H](c3ccc(F)cc3Cl)N=C(c3nccs3)N2C1` [Example 202] the EC50 was < 0.1 µM. In the case of `O=C(NC1CC1)N[C@H]1CC2=C(c3ccn(C(F)F)n3)[C@H](c3ccc(F)cc3Cl)N=C(c3nccs3)N2C1` [Example 205], the EC50 is reported as < 0.1 µM. Work on `OCC(O)[C@]1(F)CC2=C(c3ccn(C(F)F)n3)[C@H](c3ccc(F)cc3Cl)N=C(c3nccs3)N2C1` (stereo partly drawn) [Example 169] yielded an EC50 of 0.1 to 0.4 µM. `O=S(=O)(NC(CO)c1ccccn1)N[C@H]1CC2=C(c3ccn(C(F)F)n3)[C@H](c3ccc(F)cc3Cl)N=C(c3nccs3)N2C1` (stereo partly drawn) [Example 338] was tested, and the EC50 was < 0.1 µM. In the case of `COC(=O)CCCS(=O)(=O)N[C@H]1CC2=C(c3ccn(C(F)F)n3)[C@H](c3ccc(F)cc3Cl)N=C(c3nccs3)N2C1` [Example 9], the EC50 is reported as < 0.1 µM. With `O=S(=O)(C[C@@]1(F)CC2=C(c3ccn(C(F)F)n3)[C@H](c3ccc(F)cc3Cl)N=C(c3nccs3)N2C1)c1ccccc1` [Example 196] the EC50 was 0.1 to 0.4 µM. `O[C@@]1(CN2CCOCC2)CC2=C(c3ccn(C(F)F)n3)[C@H](c3ccc(F)cc3Cl)N=C(c3nccs3)N2C1` [Example 139] was tested, and the EC50 was 0.1 to 0.4 µM. With `O=S(=O)(NCc1cnccn1)N[C@H]1CC2=C(c3ccn(C(F)F)n3)[C@H](c3ccc(F)cc3Cl)N=C(c3nccs3)N2C1` [Example 317] the EC50 was < 0.1 µM. `CS(=O)(=O)[C@H]1CC2=C(c3ccn(C(F)F)n3)[C@H](c3ccc(F)cc3Cl)N=C(c3nccs3)N2C1` [Example 134] was tested, and the EC50 was 0.1 to 0.4 µM. `O=C(O)c1cccc(S(=O)(=O)NC[C@@]2(O)CC3=C(c4ccn(C(F)F)n4)[C@H](c4ccc(F)cc4Cl)N=C(c4nccs4)N3C2)c1` [Example 133] was tested, and the EC50 was > 0.4 µM. `COC(=O)c1cccc(S(=O)(=O)NC[C@@]2(O)CC3=C(c4ccn(C(F)F)n4)[C@H](c4ccc(F)cc4Cl)N=C(c4nccs4)N3C2)c1` [Example 131] was tested, and the EC50 was 0.1 to 0.4 µM. In the case of `CC(=O)OCCCS(=O)(=O)N([C@H]1CC2=C(c3ccn(C(F)F)n3)[C@H](c3ccc(F)cc3Cl)N=C(c3nccs3)N2C1)S(=O)(=O)CCCOC(C)=O` [Example 311], the EC50 is reported as < 0.1 µM. Compound `COC(=O)CCS(=O)(=O)N[C@H]1CC2=C(c3ccn(C(F)F)n3)[C@H](c3ccc(F)cc3Cl)N=C(c3nccs3)N2C1` [Example 8] has an EC50 of 0.1 to 0.4 µM. In the case of `O=S(=O)(N[C@H]1CC2=C(c3ccn(C(F)F)n3)[C@H](c3ccc(F)cc3Cl)N=C(c3nccs3)N2C1)N[C@@H](c1ccccn1)C1CC1` [Example 354], the EC50 is reported as 0.1 to 0.4 µM. For `O[C@@]1(CCl)CC2=C(c3ccn(C(F)F)n3)[C@H](c3ccc(F)cc3Cl)N=C(c3nccs3)N2C1` [Example 124], the EC50 was < 0.1 µM. For `COC(=O)CC1CCN(CCS(=O)(=O)N[C@H]2CC3=C(c4ccn(C(F)F)n4)[C@H](c4ccc(F)cc4Cl)N=C(c4nccs4)N3C2)CC1` [Example 61], the EC50 was < 0.1 µM. With `Fc1ccc([C@@H]2N=C(c3nccs3)N3C[C@@H](Nc4ccccn4)CC3=C2c2ccn(C(F)F)n2)c(Cl)c1` [Example 418] the EC50 was 0.1 to 0.4 µM. `COC(=O)c1ccc(NC(=O)N2CCN([C@H]3CC4=C(c5ccn(C(F)F)n5)[C@H](c5ccc(F)cc5Cl)N=C(c5nccs5)N4C3)CC2)cc1` [Example 46] was tested, and the EC50 was > 0.4 µM. `O=C(O)CC(NS(=O)(=O)N[C@H]1CC2=C(c3ccn(C(F)F)n3)[C@H](c3ccc(F)cc3Cl)N=C(c3nccs3)N2C1)c1ccccn1` (stereo partly drawn) [Example 356] was tested, and the EC50 was 0.1 to 0.4 µM. For `O=C(O)CC1CCN(CCS(=O)(=O)N[C@H]2CC3=C(c4ccn(C(F)F)n4)[C@H](c4ccc(F)cc4Cl)N=C(c4nccs4)N3C2)CC1` [Example 63], the EC50 was > 0.4 µM. In the case of `O=C(N[C@H]1CC2=C(c3ccn(C(F)F)n3)[C@H](c3ccc(F)cc3Cl)N=C(c3nccs3)N2C1)O[C@H]1C[C@H](O)C1` [Example 255], the EC50 is reported as 0.1 to 0.4 µM. `O=S(=O)(CCN1CCCC1)N[C@H]1CC2=C(c3ccn(C(F)F)n3)[C@H](c3ccc(F)cc3Cl)N=C(c3nccs3)N2C1` [Example 54] was tested, and the EC50 was 0.1 to 0.4 µM. `O=C(N[C@H]1CC2=C(c3ccn(C(F)F)n3)[C@H](c3ccc(F)cc3Cl)N=C(c3nccs3)N2C1)c1ncccn1` [Example 232] was tested, and the EC50 was < 0.1 µM. `OCCOC[C@@]1(O)CC2=C(c3ccn(C(F)F)n3)[C@H](c3ccc(F)cc3Cl)N=C(c3nccs3)N2C1` [Example 111] was tested, and the EC50 was > 0.4 µM. `O=S(=O)(N[C@H]1CC2=C(c3ccn(C(F)F)n3)[C@H](c3ccc(F)cc3Cl)N=C(c3nccs3)N2C1)NC1(c2ccccn2)CC1` [Example 321] was tested, and the EC50 was < 0.1 µM. With `O=C(N[C@H]1CC2=C(c3ccn(C(F)F)n3)[C@H](c3ccc(F)cc3Cl)N=C(c3nccs3)N2C1)N1CCC(O)(c2ncc(C3CC3)s2)CC1` [Example 246] the EC50 was 0.1 to 0.4 µM. For `O=C(N[C@H]1CC2=C(c3ccn(C(F)F)n3)[C@H](c3ccc(F)cc3Cl)N=C(c3nccs3)N2C1)OC1CCCCC1` [Example 251], the EC50 was < 0.1 µM. Compound `CNC(=O)N[C@H]1CC2=C(c3ccn(C(F)F)n3)[C@H](c3ccc(F)cc3Cl)N=C(c3nccs3)N2C1` [Example 199] has an EC50 of 0.1 to 0.4 µM. For `O=C(Nc1ccc(F)c(F)c1)c1cccc(S(=O)(=O)N[C@H]2CC3=C(c4ccn(C(F)F)n4)[C@H](c4ccc(F)cc4Cl)N=C(c4nccs4)N3C2)c1` [Example 422], the EC50 was 0.1 to 0.4 µM. With `CS(=O)(=O)CCS(=O)(=O)N[C@H]1CC2=C(c3ccn(C(F)F)n3)[C@H](c3ccc(F)cc3Cl)N=C(c3nccs3)N2C1` [Example 328] the EC50 was < 0.1 µM. With `CC(C)CCS(=O)(=O)N[C@H]1CC2=C(c3ccn(C(F)F)n3)[C@H](c3ccc(F)cc3Cl)N=C(c3nccs3)N2C1` [Example 71] the EC50 was 0.1 to 0.4 µM. `O=C(N[C@H]1CC2=C(c3ccn(C(F)F)n3)[C@H](c3ccc(F)cc3Cl)N=C(c3nccs3)N2C1)c1ccncc1` [Example 231] was tested, and the EC50 was < 0.1 µM. For `C=CCNC[C@@]1(N)CC2=C(c3ccn(C(F)F)n3)[C@H](c3ccc(F)cc3Cl)N=C(c3nccs3)N2C1` [Example 149], the EC50 was > 0.4 µM. In the case of `CC[C@@H](NS(=O)(=O)N[C@H]1CC2=C(c3ccn(C(F)F)n3)[C@H](c3ccc(F)cc3Cl)N=C(c3nccs3)N2C1)c1ccccn1` [Example 352], the EC50 is reported as 0.1 to 0.4 µM. With `COCCOC[C@@]1(O)CC2=C(c3ccn(C(F)F)n3)[C@H](c3ccc(F)cc3Cl)N=C(c3nccs3)N2C1` [Example 112] the EC50 was > 0.4 µM. In the case of `CNC(=O)OCC1(F)CC2=C(c3ccn(C(F)F)n3)[C@H](c3ccc(F)cc3Cl)N=C(c3nccs3)N2C1` (stereo partly drawn) [Example 178], the EC50 is reported as < 0.1 µM. For `COC(=O)C1CCCN(CCS(=O)(=O)N[C@H]2CC3=C(c4ccn(C(F)F)n4)[C@H](c4ccc(F)cc4Cl)N=C(c4nccs4)N3C2)C1` (stereo partly drawn) [Example 66], the EC50 was > 0.4 µM. Compound `COC(=O)OC[C@@]1(F)CC2=C(c3ccn(C(F)F)n3)[C@H](c3ccc(F)cc3Cl)N=C(c3nccs3)N2C1` [Example 183] has an EC50 of 0.1 to 0.4 µM. With `O=S1(=O)CCCN1[C@H]1CC2=C(c3ccn(C(F)F)n3)[C@H](c3ccc(F)cc3Cl)N=C(c3nccs3)N2C1` [Example 375] the EC50 was 0.1 to 0.4 µM. Work on `O=S(=O)(CCN1CCCCC1)N[C@H]1CC2=C(c3ccn(C(F)F)n3)[C@H](c3ccc(F)cc3Cl)N=C(c3nccs3)N2C1` [Example 55] yielded an EC50 of 0.1 to 0.4 µM. With `O=C(N[C@H]1CC2=C(c3ccn(C(F)F)n3)[C@H](c3ccc(F)cc3Cl)N=C(c3nccs3)N2C1)C1CC1` [Example 236] the EC50 was < 0.1 µM. For `O=S(=O)(N[C@H]1CC2=C(c3ccn(C(F)F)n3)[C@H](c3ccc(F)cc3Cl)N=C(c3nccs3)N2C1)c1ccc(F)c(F)c1` [Example 393], the EC50 was 0.1 to 0.4 µM. For `O=C(O)c1ccc(CS(=O)(=O)N[C@H]2CC3=C(c4ccn(C(F)F)n4)[C@H](c4ccc(F)cc4Cl)N=C(c4nccs4)N3C2)cc1` [Example 36], the EC50 was < 0.1 µM. With `CCOC(=O)CN([C@H]1CC2=C(c3ccn(C(F)F)n3)[C@H](c3ccc(F)cc3Cl)N=C(c3nccs3)N2C1)S(=O)(=O)c1cnn(CC(=O)OCC)c1` [Example 39] the EC50 was > 0.4 µM. For `O=C(N[C@H]1CC2=C(c3ccn(C(F)F)n3)[C@H](c3ccc(F)cc3Cl)N=C(c3nccs3)N2C1)OC1CCC1` [Example 253], the EC50 was < 0.1 µM. With `C=CS(=O)(=O)N([C@H]1CC2=C(c3ccn(C(F)F)n3)[C@H](c3ccc(F)cc3Cl)N=C(c3nccs3)N2C1)S(=O)(=O)C=C` [Example 51] the EC50 was > 0.4 µM.

Same assay, conditions: Hepatitis B virus, HePAD38, 120 h, read-out: HepAD38 EC50 (μM)
For `O=C(N[C@H]1CC2=C(c3ccn(C(F)F)n3)[C@H](c3ccc(F)cc3Cl)N=C(c3nccs3)N2C1)Oc1ccccc1` [Example 200], the EC50 was > 0.4 µM.
